We go through twelve compounds from ChEMBL document CHEMBL1151225, “New neolignans that inhibit DNA polymerase beta lyase” (J Nat Prod, 2004).

What is called IC50 is the concentration that inhibits the measured activity by half. A higher IC50 goes with weaker potency in that assay.

Molecules are shown by their SMILES.

The assay addresses DNA polymerase beta (Homo sapiens, UniProt P06746). The experiment in a line: Inhibition of DNA polymerase beta lyase activity.

As for `C=CC[C@@]12C=C(O)C(=O)[C@](O)([C@H](c3ccc4c(c3)OCO4)[C@H]1C)[C@@H]2O`, the half-maximal inhibitory concentration (IC50) was more than 50 µM.
In the case of `C=CCc1c(OC)cc(OC)c2c1OCO2`, it took 18.6 µM to reach half-maximal inhibition (IC50).
In turn, `C=CC[C@@]12C=C(O)C(=O)[C@](OC)([C@H](c3ccc4c(c3)OCO4)[C@H]1C)[C@@H]2O` had an IC50 of 21.6 µM.
The compound `C=CC[C@]12C[C@@H](OC)C(=O)C(OC)=C1O[C@H](c1ccc3c(c1)OCO3)[C@H]2C` showed a concentration for half-maximal inhibition (IC50) of 12.3 µM.
In turn, `C=CCc1c(OC)cc2c(c1OC)OCO2` yielded an IC50 of 34.2 µM.
The same measure for `COc1c(/C=C/CO)cc2c(c1OC)OCO2`: more than 50 µM; for `COc1cc2c(c(OC)c1/C=C/CO)OCO2`: 43.5 µM; for `C=CC[C@@]12C=C(OC)C(=O)[C@](O)([C@H](c3ccc4c(c3)OCO4)[C@H]1C)[C@@H]2O`: 15.3 µM.
`C=CC[C@@]12C=C(OC)C(=O)[C@](OC)([C@H](c3ccc4c(c3)OCO4)[C@H]1C)[C@@H]2O` showed an IC50 of more than 50 µM.
The compound `C=CC[C@@]12C[C@H](OC)[C@@H](O)[C@@](OC)([C@@H]1O)[C@@H](c1ccc3c(c1)OCO3)[C@@H]2C` [CANELLIN A] registered an IC50 of 26.5 µM.
Regarding `C=CC[C@@]12CC(=O)[C@@H](O)[C@@](OC)([C@@H]1O)[C@@H](c1ccc3c(c1)OCO3)[C@@H]2C` [CANELLIN C], the midpoint of inhibition, the IC50, lay at 32.4 µM.
As for `C=CCc1cc2c(c(OC)c1OC)OCO2` [DILLAPIOLE], the IC50 is more than 50 µM.
